Assays:
Type in all cases: cell-based
[1] = system: AMPA-type glutamate receptors (Gria1, Gria2, Gria3, Gria4); assay: Isolation and detection of target molecule from living tissue (brain slices) using the probe, LC-MS; conditions: DBA/2CrSlc mouse brain slices, 302 nm UV 1 minute, two independent tests, FIG. 2
Procedure: (§1) A DBA/2CrSlc mouse was anesthetized by isoflurane inhalation and then decapitated, and the brain was quickly removed. The removed brain was immersed in artificial cerebrospinal fluid (ACSF) at 0° C. for 60 seconds while being continuously bubbled with a gas mixture (95% O2, 5% CO2). The olfactory bulb and cerebellum were removed with a scalpel, and the brain was fixed to the stage of a vibrating blade microtome (Leica, VT1200) using instant glue. Sliced sections (thin sections having a thickness of 0.3 mm) of the brain containing the striatum and hippocampus were prepared in ACSF at 0° C. continuously bubbled with the gas mixture. The sliced sections were placed in a dish containing artificial cerebrospinal fluid. An unmodified ligand or DMSO was added, and the dish was allowed to stand at room temperature for 5 minutes. Subsequently, compound (CPF-224) produced in Production Example 10 or compound (CPF-202) produced in Production Example 8 was added, and the dish was allowed to stand at room temperature for 30 minutes. The solution was removed, and the sliced sections were irradiated with UV light (in the cases of CPF-224 and CPF-202, 302 nm UV light for 1 minute; in the case of CPF242, 365 nm UV light for 15 minutes). The sliced sections were washed and collected with PBS, and the supernatant was removed by centrifugation (3000×g, 4° C., 5 minutes). The obtained pellets were analyzed by the same method as in Test Example 1. The analysis was performed in two independent tests, and the results can be expressed as a ratio relative to those in the group treated with the unmodified ligand.

[2] = system: GABA receptor subunits (Gabra1, Gabra2, Gabra5, Gabrg2); assay: as above; conditions: DBA/2CrSlc mouse brain slices, CPF-202 302 nm UV 1 minute, CPF-242 365 nm UV 15 minutes, FIGS. 3 and 4
Procedure: as §1

[3] = target: T1, human dopamine receptor D2 (DRD2) (Homo sapiens, UniProt P14416); assay: Isolation and detection of target molecule from living cells using the probe (UV crosslinking, streptavidin enrichment, LC-MS); conditions: CHO-K1 cells stably expressing human DRD2; 302 nm UV 1 minute; LC-MS LFQ; two independent tests; FIG. 1
T1 construct: expressed in transfected cells; host or cells: CHO-K1
T1 sequence (P14416 whole entry): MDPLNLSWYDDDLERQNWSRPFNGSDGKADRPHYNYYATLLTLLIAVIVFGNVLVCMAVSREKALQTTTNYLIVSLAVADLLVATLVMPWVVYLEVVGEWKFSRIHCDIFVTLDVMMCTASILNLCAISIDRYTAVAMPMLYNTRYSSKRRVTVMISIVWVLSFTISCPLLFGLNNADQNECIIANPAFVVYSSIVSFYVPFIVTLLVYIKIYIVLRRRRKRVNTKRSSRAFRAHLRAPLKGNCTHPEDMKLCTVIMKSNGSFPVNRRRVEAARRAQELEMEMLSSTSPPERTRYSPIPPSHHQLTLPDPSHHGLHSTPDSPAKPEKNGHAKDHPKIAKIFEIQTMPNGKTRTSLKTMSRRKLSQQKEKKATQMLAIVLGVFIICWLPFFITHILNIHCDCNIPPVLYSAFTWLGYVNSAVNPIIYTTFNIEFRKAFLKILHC
Procedure: CHO-K1 cells stably expressing human dopamine receptor D2 (DRD2) were cultured on a 10-cm plate until they became confluent.
The cells were washed with a medium, and the medium was replaced with a medium containing DMSO or an unmodified ligand, followed by a reaction for 30 minutes. Subsequently, the medium was discarded and replaced with a medium containing compound (CPP-127) synthesized in Production Example 12, and the cells were allowed to stand at 37° C. for 30 minutes. The medium was discarded, and the cells were washed with PBS. PBS (1 ml) was added to the cells on the plate, and then the cells were irradiated with 302 nm UV light for 1 minute using a UV crosslinker. The cells were collected with a cell scraper after UV irradiation, and the collected cell pellets were cryopreserved at −80° C.
The cryopreserved cells were suspended in 50 mM Tris Homogenate Buffer (pH 7.4, 2.5 mM EDTA, 5 mM MgCl2, 320 mM sucrose) and homogenized using a sonicator. […]
The obtained tryptic digest was desalted and purified, and protein analysis was performed by LC-MS. […] A full scan MS spectrum was acquired in the m/z range of 380 to 1600, and a product ion spectrum was measured in data dependent acquisition mode. The data obtained by LC-MS were analyzed by Proteome Discoverer 2.2 analysis software (PD 2.2, Thermo Fisher Scientific). […]

SMILES	detection of GABA receptor subunits compared with the group treated with the unmodified ligand [2]	other results
CC1(C)CC(=O)C(=C(CCOCCOCCOCCOCCNC(=O)CCCC[C@@H]2SC[C@@H]3NC(=O)N[C@@H]32)NCCCC(=O)Nc2ccc(-n3nnc(C(=O)NCc4ccn(-c5cc6c(cc5C(F)(F)F)[nH]c(=O)c(=O)n6CC(=O)O)c4)n3)cc2)C(=O)C1 [CPF-224]		detection of AMPA-type glutamate receptors compared with the group treated with the unmodified ligand [1]: specifically collected
CC1(C)CC(=O)C(=C(CCOCCOCCOCCOCCNC(=O)CCCC[C@@H]2SC[C@@H]3NC(=O)N[C@@H]32)NCCCC(=O)Nc2ccc(-n3nnc(C(=O)NCCCN4C(=O)CN=C(c5ccccc5)c5cc(Cl)ccc54)n3)cc2)C(=O)C1 [CPF-202]	specifically collected	
CC1(C)CC(=O)C(=C(CCOCCOCCOCCOCCNC(=O)CCCC[C@@H]2SC[C@@H]3NC(=O)N[C@@H]32)NCCCCCNC(=O)CCC2(CCC(=O)NCCCN3C(=O)CN=C(c4ccccc4)c4cc(Cl)ccc43)N=N2)C(=O)C1 [CPF-242]	specifically collected	
CC1(C)CC(=O)C(=C(CCOCCOCCOCCOCCNC(=O)CCCC[C@@H]2SC[C@@H]3NC(=O)N[C@@H]32)NCCCC(=O)Nc2ccc(-n3nnc(C(=O)NCCCCC(=O)NCCCN4CCc5ccc(OCCCN6CCN(c7cccc8sccc78)CC6)cc5C4=O)n3)cc2)C(=O)C1 [CPP-127]		detection of dopamine receptor D2 compared with the group treated with the unmodified ligand [3]: specifically collected

From patent US20260118357A1, “TETRA-FUNCTIONAL CHEMICAL PROBE AND METHOD FOR IDENTIFYING TARGET MEMBRANE PROTEIN FROM LIVING CELL OR LIVING TISSUE BY USING SAID PROBE” (priority 2019, published 2026)
